Source: publication PMC6667408, “Discovery and preclinical characterization of [^18F]PI-2620, a next-generation tau PET tracer for the assessment of tau pathology in Alzheimer’s disease and other tauopathies” (European Journal of Nuclear Medicine and Molecular Imaging, 2019)

Key:
[1] = biological target: T1, MAO-A (Mus musculus, UniProt Q64133); assay: radioligand displacement of […]FEH, filtration; format: binding; conditions: [18F]fluoroethylharmine radioligand, PBS, 0.1% BSA, 2% DMSO
T1 construct: gene Maoa; native enzyme in mouse brain homogenate, 20 ug/well
T1 sequence (Q64133 1-526): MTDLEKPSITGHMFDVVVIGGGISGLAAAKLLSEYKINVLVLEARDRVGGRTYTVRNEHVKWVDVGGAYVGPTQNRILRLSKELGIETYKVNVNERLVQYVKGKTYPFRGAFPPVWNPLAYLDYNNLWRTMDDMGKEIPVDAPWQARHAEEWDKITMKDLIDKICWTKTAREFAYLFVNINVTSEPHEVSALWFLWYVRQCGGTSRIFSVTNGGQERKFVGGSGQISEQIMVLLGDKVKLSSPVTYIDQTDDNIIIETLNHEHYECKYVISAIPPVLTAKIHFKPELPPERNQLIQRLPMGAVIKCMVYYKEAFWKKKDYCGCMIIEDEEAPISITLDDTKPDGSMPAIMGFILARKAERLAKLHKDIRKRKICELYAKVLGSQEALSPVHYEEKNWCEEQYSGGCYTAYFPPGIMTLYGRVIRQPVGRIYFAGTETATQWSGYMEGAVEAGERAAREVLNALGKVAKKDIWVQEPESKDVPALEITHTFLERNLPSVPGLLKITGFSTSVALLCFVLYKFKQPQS

[2] = biological target: T2, MAO-B (Homo sapiens, UniProt P27338); assay: radioligand displacement of [3H]deprenyl, filtration; format: binding; conditions: [3H]deprenyl radioligand, PBS, 0.1% BSA, 2% DMSO
T2 construct: gene MAOB; native enzyme in human non-demented control (NDC) brain homogenate
T2 sequence (P27338 2-520): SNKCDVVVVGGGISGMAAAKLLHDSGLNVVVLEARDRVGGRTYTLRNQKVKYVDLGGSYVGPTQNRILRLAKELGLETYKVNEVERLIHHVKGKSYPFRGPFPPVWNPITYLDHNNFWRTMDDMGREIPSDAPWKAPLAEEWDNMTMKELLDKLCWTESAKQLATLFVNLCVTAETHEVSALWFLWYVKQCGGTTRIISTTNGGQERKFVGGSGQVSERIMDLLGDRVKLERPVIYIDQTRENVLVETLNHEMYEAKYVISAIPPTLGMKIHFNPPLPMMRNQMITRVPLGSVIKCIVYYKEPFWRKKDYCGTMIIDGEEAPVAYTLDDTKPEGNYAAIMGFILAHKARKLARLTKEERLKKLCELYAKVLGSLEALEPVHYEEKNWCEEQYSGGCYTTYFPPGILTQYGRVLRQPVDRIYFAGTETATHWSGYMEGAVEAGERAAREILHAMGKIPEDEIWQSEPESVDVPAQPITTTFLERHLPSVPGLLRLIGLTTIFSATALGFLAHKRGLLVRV

| SMILES | [^18F]FEH MAO-A pIC50^a [1] | pIC50 [2] | [^3H]Deprenyl MAO-B pIC50^c [2] |
| --- | --- | --- | --- |
| Fc1cnccc1-c1ccc2c(n1)[nH]c1ccncc12 [compound 8, 8] | 6.1 | – | – |
| Fc1ccc(-c2ccc3c(n2)[nH]c2ccncc23)cn1 [compound 3, RO6958948] | 6.3 | – | – |
| CNc1ccc(-c2ccc3cc(OCC(O)CF)ccc3n2)cn1 (stereo not drawn) [THK5151, reference compound] | – | 7.4 | – |
| Fc1ccc(-c2ccc3c(c2)[nH]c2ccncc23)cn1 [compound 1, AV-1451] | 7.7 | – | 6.8 |
| Fc1ccc(-c2ccc3c(n2)[nH]c2ccncc23)nc1 [compound 10, 10] | 7.1 | – | 6.5 |
| Fc1cccc(-c2ccc3c(n2)[nH]c2ccncc23)n1 [compound 9, 9] | 6.6 | – | 6.5 |
